# Read-outs that look alike come from different tables or passages of the source.
# Assays:
# FXR [1] = conditions: cited from earlier work
# FXR [2] = target: T1, FXR (Homo sapiens, UniProt Q96RI1); assay: Dual-luciferase reporter assay of FXR transcription (IR-1-CON-luc and PLTP-luc) in HeLa cells; format: cell-based
# T1 construct: Luciferase with FL-FXR and Coregulators; expressed in transfected cells; host or cells: HeLa cells
# T1 sequence (Q96RI1 1-476 isoform Q96RI1-1): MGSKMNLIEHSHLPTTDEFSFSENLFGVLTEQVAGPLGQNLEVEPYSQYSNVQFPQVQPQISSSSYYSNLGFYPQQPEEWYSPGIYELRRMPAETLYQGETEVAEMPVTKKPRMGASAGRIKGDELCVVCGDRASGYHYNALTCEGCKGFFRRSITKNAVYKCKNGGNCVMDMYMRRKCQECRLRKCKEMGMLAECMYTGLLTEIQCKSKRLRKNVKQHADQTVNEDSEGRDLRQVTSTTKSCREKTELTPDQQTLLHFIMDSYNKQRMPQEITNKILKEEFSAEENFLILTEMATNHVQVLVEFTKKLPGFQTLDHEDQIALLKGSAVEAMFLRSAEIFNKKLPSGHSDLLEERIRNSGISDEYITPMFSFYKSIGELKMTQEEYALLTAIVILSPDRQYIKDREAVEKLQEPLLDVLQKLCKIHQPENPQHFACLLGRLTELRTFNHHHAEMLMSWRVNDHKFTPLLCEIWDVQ
# T1 sequence (P19793 1-462 partner): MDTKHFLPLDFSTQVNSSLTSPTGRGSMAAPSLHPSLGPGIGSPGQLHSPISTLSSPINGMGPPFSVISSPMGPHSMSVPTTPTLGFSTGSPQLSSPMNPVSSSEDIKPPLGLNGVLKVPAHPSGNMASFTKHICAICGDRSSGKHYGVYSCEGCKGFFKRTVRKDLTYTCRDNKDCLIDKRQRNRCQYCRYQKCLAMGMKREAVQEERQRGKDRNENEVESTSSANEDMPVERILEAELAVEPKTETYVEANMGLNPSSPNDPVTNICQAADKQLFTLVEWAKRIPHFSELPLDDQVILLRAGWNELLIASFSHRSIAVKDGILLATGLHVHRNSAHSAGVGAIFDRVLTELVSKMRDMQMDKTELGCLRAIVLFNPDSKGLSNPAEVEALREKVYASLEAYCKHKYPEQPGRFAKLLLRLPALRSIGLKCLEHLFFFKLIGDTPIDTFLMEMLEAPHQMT
# Method: HeLa cells were obtained from American Type Culture Collection, and the cells were grown in culture in minimum essential medium alpha (Thermo Fisher Scientific) supplemented with 10% FBS and 1% L-glutamine at 37 °C with humidified atmosphere at 5% CO2.
# Cells were seeded 10,000 cells/well in a 96-well, clear flat, bottom cell culture plate. Cotransfection was performed with equal amount of 5 ng of each expression plasmids pcDNA3.1-FXR and pcDNA3.1-RXR, along with 50 ng of the pGL4.31-derived plasmids containing the FXRE and 1 ng of renilla luciferase (pRL-CMV). […]
# At 24 h after transfection, cells were stimulated with DMSO (final concentration of 0.71%) or test ligands at final concentrations 10 μM or 100 μM, as appropriate. After another 24 h incubation, Firefly luciferase activity and Renilla luciferase activity were measured using the Dual-Glo kit (Promega) using a SpectraMax iD5 plate reader. […]
# Data for luciferase assays are presented as the mean ± standard SD of at least three independent replicates. p values were calculated using two-way ANOVA with Dunnett’s multiple comparisons test to access the differences between specific pairs of means. For coregulator mean comparisons, p values were calculated using one-way ANOVA with Sidaks’s multiple comparisons. […]
compound,measurement,setting,value
CC(C)c1onc(-c2c(Cl)cccc2Cl)c1COc1ccc(/C=C/c2cccc(C(=O)O)c2)c(Cl)c1 [GW4064],EC50,FXR [1]; synthetic FXR agonist,[…]
"C[C@H](CCC(=O)O)[C@H]1CC[C@H]2[C@@H]3CC[C@@H]4C[C@H](O)CC[C@]4(C)[C@H]3CC[C@]12C [LCA, lithocholic acid]",EC50,FXR [1]; weak agonist of FXR,[…]
same,luciferase activity (efficacy of FXR transcriptional activation),"FXR [2]; 100 μM ligand, compared with 10 μM OCA, Fig. S1A",falls short of 10 μM OCA levels
"CC[C@H]1[C@@H](O)[C@@H]2[C@H](CC[C@]3(C)[C@@H]([C@H](C)CCC(=O)O)CC[C@@H]23)[C@@]2(C)CC[C@@H](O)C[C@@H]12 [OCA, obeticholic acid]",EC50,FXR [1]; FXR,[…]
same,luciferase activity (efficacy of FXR transcriptional activation),"FXR [2]; 10 μM ligand, both IR-1-CON-luc and PLTP-luc, compared among OCA, CDCA, LCA",highest efficacy
